Measured values as given in paper PMC10088752 (Journal of Natural Medicines, 2023).

Target: BACE1 (Homo sapiens, UniProt P56817)
Test: BACE1 FRET assay
Type: biochemical

Sequence of BACE1 (P56817 46-501): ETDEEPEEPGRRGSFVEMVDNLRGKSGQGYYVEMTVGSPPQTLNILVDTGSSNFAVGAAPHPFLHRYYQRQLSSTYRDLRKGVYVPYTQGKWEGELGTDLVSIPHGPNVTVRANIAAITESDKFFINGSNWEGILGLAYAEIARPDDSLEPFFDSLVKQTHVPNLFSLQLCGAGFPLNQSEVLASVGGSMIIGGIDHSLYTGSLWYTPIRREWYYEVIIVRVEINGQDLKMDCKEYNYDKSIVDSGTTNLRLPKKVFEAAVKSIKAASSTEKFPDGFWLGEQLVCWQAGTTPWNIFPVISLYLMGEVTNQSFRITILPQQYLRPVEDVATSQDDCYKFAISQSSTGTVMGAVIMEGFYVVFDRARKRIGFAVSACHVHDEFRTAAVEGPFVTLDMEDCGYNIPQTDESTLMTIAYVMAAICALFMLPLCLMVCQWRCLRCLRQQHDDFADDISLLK

SMILES	IC50
COc1cc(OC)c2c(O)c3c(=O)cc(C)oc3c(-c3c(OC)cc4cc(O)c5c(=O)cc(C)oc5c4c3OC)c2c1 [Compound 4, fonsecinone A]	14.9 µM
COc1cc(OC)c2c(O)c3c(=O)cc(C)oc3c(-c3c(O)cc4cc(O)c5c(=O)cc(C)oc5c4c3OC)c2c1 [Compound 7, asperpyrone A]	36.5 µM
